# Measured values taken from PubChem BioAssay AID296 (DTP/NCI, 2004).
# Results filed as inconclusive are left out.
# Tested on: MX-1 breast xenograft, nude mice, tumor weight T/C
# Test: NCI In Vivo Anticancer Drug Screen. Data for tumor model Human Mammary Carcinoma MX-1 Xenograft (intrarenal inoculation) in NU/NU Swiss (nude) mice
# Details: endpoint: mean tumor weight change, higher = larger tumour
# Experimental: The antitumor activity of compounds was measured in mice bearing transplantable tumors. Survival or tumor size were measured and the results are expressed as the measurement made in the treated group (T) divided by the measurement made in the vehicle treated control group (C). The tumor model used in this assay is Human Mammary Carcinoma MX-1 Xenograft (intrarenal inoculation) in NU/NU Swiss (nude) mice
# [1] = dose: 150.0 mg/kg/injection, schedule: Q04DX003 (ip), vehicle: saline
# [2] = dose: 300.0 mg/kg/injection, schedule: Q04DX003 (ip), vehicle: saline
# [3] = dose: 600.0 mg/kg/injection, schedule: Q04DX003 (ip), vehicle: saline
# [4] = dose: 150.0 mg/kg/injection, schedule: Q04DX003 (sc), vehicle: saline with Tween-80
# [5] = dose: 300.0 mg/kg/injection, schedule: Q04DX003 (sc), vehicle: saline with Tween-80
# [6] = dose: 300.0 mg/kg/injection, schedule: Q04DX003 (sc), vehicle: Klucel (hydroxypropylcellulose) (HPC)
# [7] = dose: 600.0 mg/kg/injection, schedule: Q04DX003 (sc), vehicle: Klucel (hydroxypropylcellulose) (HPC)
# [8] = dose: 1200.0 mg/kg/injection, schedule: Q04DX003 (sc), vehicle: Klucel (hydroxypropylcellulose) (HPC)
# [9] = dose: 300.0 mg/kg/injection, schedule: Q04DX003 (sc), vehicle: saline
# [10] = dose: 1200.0 mg/kg/injection, schedule: Q04DX003 (sc), vehicle: saline
# [11] = dose: 2400.0 mg/kg/injection, schedule: Q04DX003 (sc), vehicle: saline
# [12] = dose: 600.0 mg/kg/injection, schedule: Q04DX003 (sc), vehicle: saline with Tween-80
# [13] = dose: 1200.0 mg/kg/injection, schedule: Q04DX003 (sc), vehicle: saline with Tween-80
# [14] = dose: 0.5 mg/kg/injection, schedule: Q01DX010 (sc), vehicle: saline
structure (smiles),measurement,setting,value
O=C1c2ccccc2C(=O)c2c3c(cc(NCCNCCO)c21)N(CCO)CCN3,T/C,"dose: 12.5 mg/kg/injection, schedule: Q04DX003 (sc), vehicle: DMSO",95 % of control
same,T/C,"dose: 25.0 mg/kg/injection, schedule: Q04DX003 (sc), vehicle: DMSO",101 % of control
same,T/C,"dose: 50.0 mg/kg/injection, schedule: Q04DX003 (sc), vehicle: DMSO",77 % of control
same,T/C,"dose: 100.0 mg/kg/injection, schedule: Q04DX003 (sc), vehicle: DMSO",111 % of control
same,T/C,"dose: 200.0 mg/kg/injection, schedule: Q04DX003 (sc), vehicle: DMSO",151 % of control
Nc1ncc(C2OC(CO)C(O)C2O)c(=O)[nH]1 (stereo not given),T/C,[1],53 % of control
same,T/C,[2],35 % of control
same,T/C,[3],25 % of control
CC(=O)Oc1ccc[nH]c1=O,T/C,"dose: 200.0 mg/kg/injection, schedule: Q04DX003 (sc), vehicle: saline with Tween-80",111 % of control
same,T/C,"dose: 400.0 mg/kg/injection, schedule: Q04DX003 (sc), vehicle: saline with Tween-80",100 % of control
same,T/C,"dose: 800.0 mg/kg/injection, schedule: Q04DX003 (sc), vehicle: saline with Tween-80",114 % of control
O=C(NC(Cc1ccc(I)cc1)C(=O)O)c1ccc(Br)cc1 (stereo not given),T/C,"dose: 75.0 mg/kg/injection, schedule: Q04DX003 (ip), vehicle: sodium bicarbonate",-67 % of control
CC(C)=CCNc1ncnc2c1ncn2C1OC(CO)C(O)C1O (stereo not given),T/C,"dose: 100.0 mg/kg/injection, schedule: Q04DX003 (sc), vehicle: suspension in saline",122 % of control
COC1CC(CC2CCC(C)C(C(C)C(=O)O)O2)OC2(OC(C)(C3CCC(C)(C4OC(C5OC(O)(CO)C(C)CC5C)CC4C)O3)CC2C)C1C (stereo not given),T/C,"dose: 3.75 mg/kg/injection, schedule: Q04DX003 (sc), vehicle: Klucel (hydroxypropylcellulose) (HPC)",120 % of control
same,T/C,"dose: 7.5 mg/kg/injection, schedule: Q04DX003 (sc), vehicle: Klucel (hydroxypropylcellulose) (HPC)",65 % of control
same,T/C,"dose: 15.0 mg/kg/injection, schedule: Q04DX003 (sc), vehicle: Klucel (hydroxypropylcellulose) (HPC)",86 % of control
O=C1C(NCC(O)CO)=C(N2CC2)C(=O)C(NCC(O)CO)=C1N1CC1 (stereo not given),T/C,"dose: 4.0 mg/kg/injection, schedule: Q04DX003 (ip), vehicle: saline",76 % of control
same,T/C,"dose: 8.0 mg/kg/injection, schedule: Q04DX003 (ip), vehicle: saline",69 % of control
same,T/C,"dose: 16.0 mg/kg/injection, schedule: Q04DX003 (ip), vehicle: saline",46 % of control
C1=CCOCOC1,T/C,[4],71 % of control
same,T/C,[5],70 % of control
N=c1nc2n(cc1F)[C@@H]1O[C@H](CO)[C@@H](O)[C@@H]1O2,T/C,"dose: 300.0 mg/kg/injection, schedule: Q04DX003 (sc), vehicle: suspension in saline",104 % of control
same,T/C,"dose: 600.0 mg/kg/injection, schedule: Q04DX003 (sc), vehicle: suspension in saline",89 % of control
same,T/C,"dose: 1200.0 mg/kg/injection, schedule: Q04DX003 (sc), vehicle: suspension in saline",117 % of control
Cc1cc(N2C(=O)CCSC2=S)ccc1Cl,T/C,"dose: 150.0 mg/kg/injection, schedule: Q04DX003 (sc), vehicle: Klucel (hydroxypropylcellulose) (HPC)",169 % of control
same,T/C,[6],90 % of control
same,T/C,[7],63 % of control
same,T/C,[8],96 % of control
CONc1ccn(C2OC(CO)C(O)C2O)c(=O)n1 (stereo not given),T/C,[9],86 % of control
same,T/C,"dose: 600.0 mg/kg/injection, schedule: Q04DX003 (sc), vehicle: saline",74 % of control
same,T/C,[10],107 % of control
same,T/C,[11],77 % of control
CN(C)P(=O)(Oc1ccccc1)N(C)C,T/C,[4],97 % of control
same,T/C,[5],107 % of control
same,T/C,[12],113 % of control
same,T/C,[13],71 % of control
C=CS(C=C)=NS(=O)(=O)c1ccc(C)cc1,T/C,"dose: 18.75 mg/kg/injection, schedule: Q04DX003 (sc), vehicle: Klucel (hydroxypropylcellulose) (HPC)",64 % of control
same,T/C,"dose: 37.5 mg/kg/injection, schedule: Q04DX003 (sc), vehicle: Klucel (hydroxypropylcellulose) (HPC)",87 % of control
O=C1[C@H]2CCC[C@H]2[C@H]2CCC[C@@H]12,T/C,[5],112 % of control
same,T/C,[12],123 % of control
same,T/C,[13],95 % of control
same,T/C,"dose: 2400.0 mg/kg/injection, schedule: Q04DX003 (sc), vehicle: saline with Tween-80",92 % of control
C=C1C(=O)C23[C@H](O)C1CC[C@H]2[C@]12COC3(O)[C@@H](O)[C@@H]1C(C)(C)CC[C@@H]2O,T/C,"dose: 12.5 mg/kg/injection, schedule: Q04DX003 (sc), vehicle: Klucel (hydroxypropylcellulose) (HPC)",52 % of control
same,T/C,"dose: 25.0 mg/kg/injection, schedule: Q04DX003 (sc), vehicle: Klucel (hydroxypropylcellulose) (HPC)",85 % of control
NCc1cc(O)c(O)c(O)c1,T/C,[1],115 % of control
same,T/C,[2],91 % of control
same,T/C,[3],88 % of control
C[C@]12C=CC(=O)C=C1CC[C@@H]1[C@@H]2C(=O)C[C@@]2(C)[C@H]1CC[C@]2(O)C(=O)CO,T/C,[6],40 % of control
same,T/C,[7],73 % of control
same,T/C,[8],44 % of control
same,T/C,"dose: 2400.0 mg/kg/injection, schedule: Q04DX003 (sc), vehicle: Klucel (hydroxypropylcellulose) (HPC)",29 % of control
N#Cc1cn(C2OC(CO)C(O)C2O)c2ncnc(N)c12 (stereo not given),T/C,[14],172 % of control
COc1cc2cc(c1Cl)N(C)C(=O)C[C@H](OC(=O)[C@H](C)N(C)C(C)=O)[C@]1(C)O[C@H]1[C@H](C)[C@@H]1C[C@@](O)(NC(=O)O1)[C@H](OC)C=C/C=C(\C)C2,T/C,"dose: 50.0 micrograms/kg/injection, schedule: Q01DX010 (sc), vehicle: Klucel (hydroxypropylcellulose) (HPC)",99 % of control
same,T/C,"dose: 100.0 micrograms/kg/injection, schedule: Q01DX010 (sc), vehicle: Klucel (hydroxypropylcellulose) (HPC)",67 % of control
same,T/C,"dose: 200.0 micrograms/kg/injection, schedule: Q01DX010 (sc), vehicle: Klucel (hydroxypropylcellulose) (HPC)",-74 % of control
Cc1cc2c(c3oc(C4(C)OC4C4OC4C)cc(=O)c13)C(=O)c1c(O)c(C3CC(C)(N(C)C)C(O)C(C)O3)cc(C3CC(N(C)C)C(O)C(C)O3)c1C2=O (stereo not given),T/C,"dose: 0.05 mg/kg/injection, schedule: Q04DX003 (sc), vehicle: saline",77 % of control
same,T/C,"dose: 0.1 mg/kg/injection, schedule: Q04DX003 (sc), vehicle: saline",30 % of control
CN1CCN(c2ccc([N+](=O)[O-])c3no[n+]([O-])c23)CC1,T/C,"dose: 20.0 mg/kg/injection, schedule: Q01DX010 (sc), vehicle: saline with Tween-80",45 % of control
same,T/C,"dose: 40.0 mg/kg/injection, schedule: Q01DX010 (sc), vehicle: saline with Tween-80",69 % of control
CN1c2c(nc(N)[nH]c2=O)NCC1CCNc1ccc(C(=O)NC(CCC(=O)O)C(=O)O)cc1 (stereo not given),T/C,"dose: 100.0 mg/kg/injection, schedule: Q01DX010 (sc), vehicle: saline",83 % of control
same,T/C,"dose: 100.0 mg/kg/injection, schedule: Q01DX010 (sc), vehicle: suspension in saline",60 % of control
same,T/C,"dose: 200.0 mg/kg/injection, schedule: Q01DX010 (sc), vehicle: saline",76 % of control
same,T/C,"dose: 400.0 mg/kg/injection, schedule: Q01DX010 (sc), vehicle: saline",81 % of control
same,T/C,"dose: 400.0 mg/kg/injection, schedule: Q01DX010 (sc), vehicle: suspension in saline",25 % of control
same,T/C,"dose: 800.0 mg/kg/injection, schedule: Q01DX010 (sc), vehicle: saline",62 % of control
COc1cc2c(c(OC)c1OC)-c1ccc(OC)c(=O)cc1[C@@H](NC(C)=O)CC2,T/C,"dose: 0.25 mg/kg/injection, schedule: Q01DX010 (sc), vehicle: saline",94 % of control
same,T/C,[14],30 % of control
NC(Cn1ccc(=O)c(O)c1)C(=O)O (stereo not given),T/C,[9],72 % of control
same,T/C,[10],88 % of control
same,T/C,[11],88 % of control
